# In ChEMBL document CHEMBL1151757, “Synthesis, radiosynthesis, and biological evaluation of fluorine-18-labeled 2beta-carbo(fluoroalkoxy)-3beta-(3'-((Z)-2-haloethenyl)phenyl)nortropanes: candidate radioligands for in vivo imaging of the serotonin transporter with positron emission tomography” (J Med Chem, 2008):
# Test system: Putamen
# Experiment: Drug uptake in anesthetized cynomolgus monkey brain putamen after 15.5 mins postinjection
# Assay type: ADME, organism-based, Macaca fascicularis
# Design: unit not given here
# Conditions: in vivo
row,SMILES,Drug uptake
1,O=C(OCCC[18F])C1C2CCC(CC1c1cccc(/C=C\Br)c1)N2 (centres undefined),5.53

# Test system: Pons
# Experiment: Drug uptake in anesthetized cynomolgus monkey brain pons after 65 mins postinjection
# Assay type: ADME, organism-based, Macaca fascicularis
# Conditions: in vivo
row,SMILES,Drug uptake
1,O=C(OCCC[18F])C1C2CCC(CC1c1cccc(/C=C\Br)c1)N2 (centres undefined),4.93

# Test system: Thalamus
# Experiment: Drug uptake in anesthetized cynomolgus monkey brain thalamus after 15.5 mins postinjection
# Assay type: ADME, organism-based, Macaca fascicularis
# Design: unit not given here
# Conditions: in vivo
row,SMILES,Drug uptake
1,O=C(OCCC[18F])C1C2CCC(CC1c1cccc(/C=C\Br)c1)N2 (centres undefined),4.64

# Test system: Caudate
# Experiment: Drug uptake in anesthetized cynomolgus monkey brain caudate after 145 mins postinjection
# Assay type: ADME, organism-based, Macaca fascicularis, Caudate nucleus
# Conditions: in vivo
row,SMILES,Drug uptake
1,O=C(OCCC[18F])C1C2CCC(CC1c1cccc(/C=C\Br)c1)N2 (centres undefined),4.38

# Test system: not listed separately
# Experiment: Ratio of drug uptake in midbrain to cerebellum in anesthetized cynomolgus monkey after 18.5 mins postinjection
# Assay type: ADME, organism-based, Macaca fascicularis
# Conditions: in vivo
row,SMILES,Ratio
1,O=C(OCCC[18F])C1C2CCC(CC1c1cccc(/C=C\Br)c1)N2 (centres undefined),0.9

# Test system: Thalamus
# Experiment: Drug uptake in anesthetized cynomolgus monkey brain thalamus after 115 mins postinjection
# Assay type: ADME, organism-based, Macaca fascicularis
# Design: unit not given here
# Conditions: in vivo
row,SMILES,Drug uptake
1,O=C(OCCC[18F])C1C2CCC(CC1c1cccc(/C=C\Br)c1)N2 (centres undefined),4.82

# Test system: Pons
# Experiment: Drug uptake in anesthetized cynomolgus monkey brain pons after 215 mins postinjection
# Assay type: ADME, organism-based, Macaca fascicularis
# Conditions: in vivo
row,SMILES,Drug uptake
1,O=C(OCCC[18F])C1C2CCC(CC1c1cccc(/C=C\Br)c1)N2 (centres undefined),3.17

# Test system: not listed separately
# Experiment: Ratio of drug uptake in caudate to cerebellum in anesthetized cynomolgus monkey after 0.5 mins postinjection
# Assay type: ADME, organism-based, Macaca fascicularis
# Conditions: in vivo
row,SMILES,Ratio
1,O=C(OCCC[18F])C1C2CCC(CC1c1cccc(/C=C\Br)c1)N2 (centres undefined),0.9

# Test system: Medulla
# Experiment: Drug uptake in anesthetized cynomolgus monkey brain medulla after 27.5 mins postinjection
# Assay type: ADME, organism-based, Macaca fascicularis
# Conditions: in vivo
row,SMILES,Drug uptake
1,O=C(OCCC[18F])C1C2CCC(CC1c1cccc(/C=C\Br)c1)N2 (centres undefined),6.12

# Test system: not listed separately
# Experiment: Drug uptake in anesthetized cynomolgus monkey brain cerebellum after 45 mins postinjection
# Assay type: ADME, organism-based, Macaca fascicularis
# Conditions: in vivo, 0.75 h
row,SMILES,Drug uptake
1,O=C(OCCC[18F])C1C2CCC(CC1c1cccc(/C=C\Br)c1)N2 (centres undefined),5.11

# Test system: not listed separately
# Experiment: Ratio of drug uptake in occipital lobe to cerebellum in anesthetized cynomolgus monkey after 4.5 mins postinjection
# Assay type: ADME, organism-based, Macaca fascicularis
# Conditions: in vivo, 0.075 h
row,SMILES,Ratio
1,O=C(OCCC[18F])C1C2CCC(CC1c1cccc(/C=C\Br)c1)N2 (centres undefined),0.7

# Test system: not listed separately
# Experiment: Drug uptake in anesthetized cynomolgus monkey brain cerebellum after 135 mins postinjection
# Assay type: ADME, organism-based, Macaca fascicularis
# Conditions: in vivo, 2.25 h
row,SMILES,Drug uptake
1,O=C(OCCC[18F])C1C2CCC(CC1c1cccc(/C=C\Br)c1)N2 (centres undefined),2.89

# Test system: not listed separately
# Experiment: Ratio of drug uptake in thalamus to cerebellum in anesthetized cynomolgus monkey after 155 mins postinjection
# Assay type: ADME, organism-based, Macaca fascicularis
# Conditions: in vivo
row,SMILES,Ratio
1,O=C(OCCC[18F])C1C2CCC(CC1c1cccc(/C=C\Br)c1)N2 (centres undefined),1.6

# Test system: Midbrain
# Experiment: Drug uptake in anesthetized cynomolgus monkey brain midbrain after 2.5 mins postinjection
# Assay type: ADME, organism-based, Macaca fascicularis
# Design: unit not given here
# Conditions: in vivo
row,SMILES,Drug uptake
1,O=C(OCCC[18F])C1C2CCC(CC1c1cccc(/C=C\Br)c1)N2 (centres undefined),1.48

# Test system: not listed separately
# Experiment: Ratio of drug uptake in pons to cerebellum in anesthetized cynomolgus monkey after 18.5 mins postinjection
# Assay type: ADME, organism-based, Macaca fascicularis
# Conditions: in vivo
row,SMILES,Ratio
1,O=C(OCCC[18F])C1C2CCC(CC1c1cccc(/C=C\Br)c1)N2 (centres undefined),0.7

# Test system: not listed separately
# Experiment: Ratio of drug uptake in putamen to cerebellum in anesthetized cynomolgus monkey after 45 mins postinjection
# Assay type: ADME, organism-based, Macaca fascicularis
# Conditions: in vivo, 0.75 h
row,SMILES,Ratio
1,O=C(OCCC[18F])C1C2CCC(CC1c1cccc(/C=C\Br)c1)N2 (centres undefined),1.2

# Test system: Thalamus
# Experiment: Drug uptake in anesthetized cynomolgus monkey brain thalamus after 125 mins postinjection
# Assay type: ADME, organism-based, Macaca fascicularis
# Design: unit not given here
# Conditions: in vivo
row,SMILES,Drug uptake
1,O=C(OCCC[18F])C1C2CCC(CC1c1cccc(/C=C\Br)c1)N2 (centres undefined),4.71

# Test system: not listed separately
# Experiment: Ratio of drug uptake in thalamus to cerebellum in anesthetized cynomolgus monkey after 115 mins postinjection
# Assay type: ADME, organism-based, Macaca fascicularis
# Conditions: in vivo
row,SMILES,Ratio
1,O=C(OCCC[18F])C1C2CCC(CC1c1cccc(/C=C\Br)c1)N2 (centres undefined),1.5

# Test system: not listed separately
# Experiment: Drug uptake in anesthetized cynomolgus monkey brain cerebellum after 155 mins postinjection
# Assay type: ADME, organism-based, Macaca fascicularis
# Conditions: in vivo
row,SMILES,Drug uptake
1,O=C(OCCC[18F])C1C2CCC(CC1c1cccc(/C=C\Br)c1)N2 (centres undefined),2.62

# Test system: not listed separately
# Experiment: Ratio of drug uptake in medulla to cerebellum in anesthetized cynomolgus monkey after 18.5 mins postinjection
# Assay type: ADME, organism-based, Macaca fascicularis
# Conditions: in vivo
row,SMILES,Ratio
1,O=C(OCCC[18F])C1C2CCC(CC1c1cccc(/C=C\Br)c1)N2 (centres undefined),1

# Test system: not listed separately
# Experiment: Drug uptake in anesthetized cynomolgus monkey brain frontal lobe after 0.5 mins postinjection
# Assay type: ADME, organism-based, Macaca fascicularis
# Conditions: in vivo
row,SMILES,Drug uptake
1,O=C(OCCC[18F])C1C2CCC(CC1c1cccc(/C=C\Br)c1)N2 (centres undefined),0.01

# Test system: Pons
# Experiment: Drug uptake in anesthetized cynomolgus monkey brain pons after 225 mins postinjection
# Assay type: ADME, organism-based, Macaca fascicularis
# Conditions: in vivo, 3.75 h
row,SMILES,Drug uptake
1,O=C(OCCC[18F])C1C2CCC(CC1c1cccc(/C=C\Br)c1)N2 (centres undefined),3.21

# Test system: Putamen
# Experiment: Drug uptake in anesthetized cynomolgus monkey brain putamen after 0.5 mins postinjection
# Assay type: ADME, organism-based, Macaca fascicularis
# Conditions: in vivo
row,SMILES,Drug uptake
1,O=C(OCCC[18F])C1C2CCC(CC1c1cccc(/C=C\Br)c1)N2 (centres undefined),0.01

# Test system: Putamen
# Experiment: Drug uptake in anesthetized cynomolgus monkey brain putamen after 155 mins postinjection
# Assay type: ADME, organism-based, Macaca fascicularis
# Conditions: in vivo
row,SMILES,Drug uptake
1,O=C(OCCC[18F])C1C2CCC(CC1c1cccc(/C=C\Br)c1)N2 (centres undefined),4.38

# Test system: not listed separately
# Experiment: Drug uptake in anesthetized cynomolgus monkey brain occipital lobe after 1.5 mins postinjection
# Assay type: ADME, organism-based, Macaca fascicularis
# Conditions: in vivo, 0.025 h
row,SMILES,Drug uptake
1,O=C(OCCC[18F])C1C2CCC(CC1c1cccc(/C=C\Br)c1)N2 (centres undefined),0.3

# Test system: Thalamus
# Experiment: Drug uptake in anesthetized cynomolgus monkey brain thalamus after 27.5 mins postinjection
# Assay type: ADME, organism-based, Macaca fascicularis
# Design: unit not given here
# Conditions: in vivo
row,SMILES,Drug uptake
1,O=C(OCCC[18F])C1C2CCC(CC1c1cccc(/C=C\Br)c1)N2 (centres undefined),5.08

# Test system: not listed separately
# Experiment: Ratio of drug uptake in frontal lobe to cerebellum in anesthetized cynomolgus monkey after 95 mins postinjection
# Assay type: ADME, organism-based, Macaca fascicularis
# Conditions: in vivo
row,SMILES,Ratio
1,O=C(OCCC[18F])C1C2CCC(CC1c1cccc(/C=C\Br)c1)N2 (centres undefined),0.9

# Test system: Medulla
# Experiment: Drug uptake in anesthetized cynomolgus monkey brain medulla after 22.5 mins postinjection
# Assay type: ADME, organism-based, Macaca fascicularis
# Conditions: in vivo, 0.375 h
row,SMILES,Drug uptake
1,O=C(OCCC[18F])C1C2CCC(CC1c1cccc(/C=C\Br)c1)N2 (centres undefined),6.29

# Test system: not listed separately
# Experiment: Drug uptake in anesthetized cynomolgus monkey brain frontal lobe after 6.5 mins postinjection
# Assay type: ADME, organism-based, Macaca fascicularis
# Conditions: in vivo
row,SMILES,Drug uptake
1,O=C(OCCC[18F])C1C2CCC(CC1c1cccc(/C=C\Br)c1)N2 (centres undefined),2.95
